Patent publication US10954219B2, “1,3-benzodioxole derivative” (DAIICHI SANKYO COMPANY, LIMITED, priority 2014, dated 2021)

Experiments:
[1] = tested on: NCI-H520; experiment: Cell growth inhibitory activity evaluation, NCI-H520; type: cell-based; settings: Homo sapiens, NCI-H520 (Lung cancer), read-out: Extent of cell growth inhibition
Protocol: (§1) Cell Growth Inhibitory Activity Evaluation
(§2) Cells were purchased from ATCC (G401 (human kidney-derived rhabdoid tumor), HepG2, LNCaP, LS180, MV4; 11, NCI-H1563, NCI-H1703, NCI-H520, NCI-H522, NCI-N87, RS4; 11, and THP-1), Deutsche Sammlung von Mikroorganismen und Zellkulturen GmbH (DSMZ) (KARPAS-422 (EZH2 Y641N mutant human diffuse large B-cell lymphoma) and KOPN8), and Health Science Research Resource Bank (OVMANA). […] Then, the luminescence intensity of each well was measured using a plate reader (EnVision, PerkinElmer, Inc.). The extent of cell growth inhibition was calculated from the luminescence intensity of a sample-supplemented group (Ts) and a DMSO-supplemented group (Cs) measured on the inoculation date and a sample-supplemented group (T) and a DMSO-supplemented group (C) measured on the effect determination date according to the following expression: Extent of cell growth inhibition (%)={1−(T−Ts)/(C−Cs)}×100
(§3) When the number of cells in the sample-supplemented group is decreased on the determination date compared with the inoculation date (T<Ts), a cytocidal effect was calculated according to the following expression: Cytocidal rate (%)=(T−Ts)/Ts×(−100)

[2] = tested on: LNCaP; experiment: Cell growth inhibitory activity evaluation, LNCaP; type: cell-based; settings: LNCaP (Prostate cancer)
Protocol: as §1, §2, §3

[3] = tested on: HepG2; experiment: Cell growth inhibitory activity evaluation, HepG2; type: cell-based; settings: Homo sapiens, HepG2 (Liver cancer), read-out: Extent of cell growth inhibition
Protocol: as §1, §2, §3

[4] = tested on: LS180; experiment: Cell growth inhibitory activity evaluation, LS180; type: cell-based, human; settings: LS180 (Colorectal cancer)
Protocol: as §1, §2, §3

[5] = tested on: KARPAS-422 (EZH2 Y641N mutant human diffuse large B-cell lymphoma); experiment: Cell growth inhibitory activity evaluation, KARPAS-422; type: cell-based; settings: KARPAS-422 (Lymphoma)
Protocol: as §1, §2, §3

[6] = tested on: G401 (human kidney-derived rhabdoid tumor); experiment: Cell growth inhibitory activity evaluation, G401; type: cell-based
Protocol: as §1, §2, §3

[7] = tested on: NCI-H1563; experiment: Cell growth inhibitory activity evaluation, NCI-H1563; type: cell-based; settings: Homo sapiens, NCI-H1563 (Lung cancer), read-out: Extent of cell growth inhibition
Protocol: as §1, §2, §3

[8] = tested on: MV4;11; experiment: Cell growth inhibitory activity evaluation, MV4;11; type: cell-based; settings: MV4;11 (Leukemia)
Protocol: as §1, §2, §3

[9] = tested on: EZH2 Y641N mutant human diffuse large B-cell lymphoma KARPAS-422-subcutaneously transplanted model; experiment: Antitumor activity, KARPAS-422-subcutaneously transplanted model; type: in vivo, female SCID mice; settings: oral, QD × 14, 45 days after grouping
Excerpt: Evaluation of Antitumor Activity Against EZH2 Y641N Mutant Human Diffuse Large B-Cell Lymphoma KARPAS-422-Subcutaneously Transplanted Model
EZH2 Y641N mutant human diffuse large B-cell lymphoma KARPAS-422 cells were subcutaneously transplanted in an amount of 2×10^7 cells/head to the right abdomens of female SCID mice. After 30 days, the mice were grouped on the basis of their presumed tumor volumes (major axis×minor axis×minor axis/2) and body weights. The KARPAS-422 cells were purchased from DSMZ. […] The tumor volume of each individual was measured from the grouping date to 45 days thereafter (test completion date).

[10] = tested on: NCI-H522; experiment: Cell growth inhibitory activity evaluation, NCI-H522; type: cell-based; settings: NCI-H522 (Lung cancer)
Protocol: as §1, §2, §3

[11] = tested on: OVMANA; experiment: Cell growth inhibitory activity evaluation, OVMANA; type: cell-based; settings: OVMANA (Ovarian cancer), read-out: Extent of cell growth inhibition
Protocol: as §1, §2, §3

[12] = tested on: RS4;11; experiment: Cell growth inhibitory activity evaluation, RS4;11; type: cell-based; settings: RS4;11 (Leukemia)
Protocol: as §1, §2, §3

[13] = tested on: SNF5 deletion mutant human kidney-derived rhabdoid tumor G401-subcutaneously transplanted model; experiment: Antitumor activity, G401-subcutaneously transplanted model; type: in vivo, female BALB/c-nu/nu mice; settings: oral, QD × 12, 36 days after grouping
Excerpt: Evaluation of Antitumor Activity Against SNF5 Deletion Mutant Human Kidney-Derived Rhabdoid Tumor G401-Subcutaneously Transplanted Model
SNF5 deletion mutant human kidney-derived rhabdoid tumor G401 cells were subcutaneously transplanted in an amount of 1×10^7 cells/head to the right abdomens of female BALB/c-nu/nu mice. After 23 days, the mice were grouped on the basis of their presumed tumor volumes and body weights. The G401 cells were purchased from ATCC. […] The tumor volume of each individual was measured from the grouping date to 36 days thereafter (test completion date).

[14] = tested on: NCI-N87; experiment: Cell growth inhibitory activity evaluation, NCI-N87; type: cell-based, human; settings: NCI-N87 (Stomach cancer)
Protocol: as §1, §2, §3

[15] = tested on: THP-1; experiment: Cell growth inhibitory activity evaluation, THP-1; type: cell-based; settings: THP-1 (Leukemia)
Protocol: as §1, §2, §3

[16] = tested on: NCI-H1703; experiment: Cell growth inhibitory activity evaluation, NCI-H1703; type: cell-based; settings: NCI-H1703 (Lung cancer)
Protocol: as §1, §2, §3

[17] = tested on: KOPN8; experiment: Cell growth inhibitory activity evaluation, KOPN8; type: cell-based
Protocol: as §1, §2, §3

[18] = Homo sapiens, read-out: Extent of cell growth inhibition

Which inhibition at 1 µM [1] does the source give for `Cc1cc(C)c(CNC(=O)c2cc(Br)c3c(c2C)OC(C)([C@H]2CC[C@H](N(C)C)CC2)O3)c(=O)[nH]1` (relative stereo) [Example 14, 7-Bromo-2-[trans-4-(dimethylamino)cyclohexyl]-N-[(4,6-dimethyl-2-oxo-1,2-dihydropyridin-3-yl)methyl]-2,4-dimethyl-1,3-benzodioxole-5-carboxamide] here?
Its inhibition at 1 µM is 80%.

What about the inhibition at 1 µM [2, 18] of the same compound?
The inhibition at 1 µM was greater than 100%.

What about the Cytocidal rate ([2]; 1 uM) of the same compound?
Its Cytocidal rate is 6%.

What about the inhibition at 1 µM [3] of the same compound?
The inhibition at 1 µM was 78%.

And the inhibition at 1 µM [4, 18]?
The inhibition at 1 µM was greater than 100%.

What about the Cytocidal rate ([4]; 1 uM) of the same compound?
The Cytocidal rate was 6%.

What about the inhibition at 1 µM [5, 18] of the same compound?
Its inhibition at 1 µM is greater than 100%.

And the Cytocidal rate ([5]; 1 uM)?
Its Cytocidal rate is 100%.

What about the Cytocidal rate ([6]; 1 uM) of the same compound?
Its Cytocidal rate is 100%.

And the inhibition at 1 µM ([6]; Homo sapiens, G-401, read-out: Extent of cell growth inhibition)?
Its inhibition at 1 µM is greater than 100%.

What about the inhibition at 1 µM [7] of the same compound?
Its inhibition at 1 µM is 56%.

What about the inhibition at 1 µM [8, 18] of the same compound?
Its inhibition at 1 µM is greater than 100%.

What about the Cytocidal rate ([8]; 1 uM) of the same compound?
Its Cytocidal rate is 88%.

And the “Extent of tumor growth inhibition” value ([9]; KARPAS-422, 5 mg/kg)?
The value was 26%.

What about the “Extent of tumor growth inhibition” value ([9]; KARPAS-422, 25 mg/kg) of the same compound?
Its value is 80%.

What about the “Extent of tumor growth inhibition” value ([9]; KARPAS-422, 200 mg/kg) of the same compound?
Its value is greater than 100%.

What about the “Extent of tumor regression” value ([9]; KARPAS-422, 200 mg/kg) of the same compound?
Its value is 50%.

And the inhibition at 1 µM [10, 18]?
Its inhibition at 1 µM is greater than 100%.

What about the Cytocidal rate ([10]; 1 uM) of the same compound?
Its Cytocidal rate is 13%.

And the inhibition at 1 µM [11]?
Its inhibition at 1 µM is 95%.

And the inhibition at 1 µM [12, 18]?
Its inhibition at 1 µM is greater than 100%.

What about the Cytocidal rate ([12]; 1 uM) of the same compound?
Its Cytocidal rate is 94%.

What about the “Extent of tumor growth inhibition” value ([13]; G401, 50 mg/kg) of the same compound?
Its value is greater than 100%.

What about the “Extent of tumor regression” value ([13]; G401, 50 mg/kg) of the same compound?
Its value is 19%.

And the “Extent of tumor growth inhibition” value ([13]; G401, 200 mg/kg)?
Its value is greater than 100%.

And the “Extent of tumor regression” value ([13]; G401, 200 mg/kg)?
Its value is 29%.

What about the inhibition at 1 µM [14, 18] of the same compound?
Its inhibition at 1 µM is greater than 100%.

And the Cytocidal rate ([14]; 1 uM)?
Its Cytocidal rate is 15%.

What about the inhibition at 1 µM [15, 18] of the same compound?
The inhibition at 1 µM was greater than 100%.

What about the Cytocidal rate ([15]; 1 uM) of the same compound?
Its Cytocidal rate is 7%.

What about the inhibition at 1 µM [16, 18] of the same compound?
The inhibition at 1 µM was greater than 100%.

What about the Cytocidal rate ([16]; 1 uM) of the same compound?
Its Cytocidal rate is 49%.

And the inhibition at 1 µM ([17]; Homo sapiens, KOPN-8, KOPN8 (Leukemia), read-out: Extent of cell growth inhibition)?
The inhibition at 1 µM was greater than 100%.

And the Cytocidal rate ([17]; KOPN8 (Leukemia), 1 uM)?
The Cytocidal rate was 99%.
